pEC50, pIC50: −log10 of the molar value. Values joined by “and” are separate entries in the source; they are usually repeats but may differ in a detail not shown here. Equal values may be shown once. Read-outs that look alike come from different tables or passages of the source.
Legend:
FKBP = FKBP (Homo sapiens, UniProt P62942); experiment: FKBP competitive binding assay based on fluorescence polarization (FP); settings: for pIC50 / IC50: competitive FP binding, methods of Example 2.5; for pIC50: read-out: FKBP IC50; for IC50: FKBP IC50 (nM)
Procedure: A Competitive Binding FP Assay is described in detail in WO99/36553 and WO96/41865. That assay permits the in vitro measurement of an IC50 value for a given compound which reflects its ability to bind to an FKBP-protein in competition with a labeled FKBP ligand, such as, for example, FK506.
(§1) A diverse group of C7-modified 28-epirapalogs were prepared as described in Example 4.

[1] = molecular target: T1, transcriptional switch components containing FKBP and 2098L mutant FRB domains (Homo sapiens, UniProt P42345+P62942); experiment: transcription assay in engineered HD1080 cells expressing SEAP (txn 2098L); assay type: cell-based
T1 construct: transcriptional switchcomponents containing FKBP and 2098L mutant FRB domains, respectively; fused on or other part: The two switch components are separate chimeric proteins; Neither is given for this cell line
Description: The ability of the rapalogs to multimerize chimeric proteins may be measured in cell-based assays by measuring the occurrence of an event triggered by such multimerization. For instance, one may use cells containing and capable of expressing DNA encoding a first chimeric protein comprising one or more FKBP-domains and one or more effector domains as well as DNA encoding a second chimeric protein containing an FRB domain and one or more effector domains capable, upon multimerization, of actuating a biological response. We prefer to use cells which further contain a reporter gene under the transcriptional control of a regulatory element (i.e., promoter) which is responsive to the multimerization of the chimeric proteins. The design and preparation of illustrative components and their use in so engineered cells is described in WO99/36553 and WO96/41865 and the other international patent applications referred to in this and the foregoing section. (See also W099/10510 for additional guidance on the design, assembly and delivery of nucleic acids to render cells and animals responsive to rapalogs of interest and for additional guidance on applications of such systems.) The cells are grown or maintained in culture. A rapalog is added to the culture medium and after a suitable incubation period (to permit gene expression and secretion, e.g. several hours or overnight) the presence of the reporter gene product is measured. Positive results, i.e., multimerization, correlates with transcription of the reporter gene as observed by the appearance of the reporter gene product. The reporter gene product may be a conveniently detectable protein (e.g. by ELISA) or may catalyze the production of a conveniently detectable product (e.g. colored). Materials and methods for producing appropriate cell lines for conducting such assays are disclosed in the international patent applications cited above in this section.
2. EC50 values of the various compounds was measured in a transcription assay using genetically engineered HD1080 cells which constitutively express transcriptional switch components containing FKBP and 2098L mutant FRB domains, respectively and which regulatably express secreted alkaline phosphatase (SEAP) in the presence of a compound which multimerizes the switch components. The assay is a literature assay. See WO 99/36553, e.g. Example 12, pages 120–121 (& FIG. 2D) […]

murine splenocyte = murine splenocyte assay for immunosuppressive activity; assay type: cell-based; settings: for pIC50: read-out: Splenocyte IC50; for immunosuppressive activity compared with rapamycin: splenocyte proliferation assay, versus rapamycin
Procedure: 3. Conventional murine splenocyte assay for immunosuppressive activity.
as §1

[2] = cellular transcription assay, methods of Example 2.5; read-out: TXN 2098L EC50
[3] = mouse splenocyte assay, methods of Example 2.5
[4] = read-out: TXN 2098L EC50; cellular transcription assay, methods of Example 2.5
[5] = Mus musculus, Splenocyte, mouse splenocyte assay, methods of Example 2.5
[6] = Mus musculus, Splenocyte, murine splenocyte assay, immunosuppressive activity

Sequence of FKBP (P62942 whole entry): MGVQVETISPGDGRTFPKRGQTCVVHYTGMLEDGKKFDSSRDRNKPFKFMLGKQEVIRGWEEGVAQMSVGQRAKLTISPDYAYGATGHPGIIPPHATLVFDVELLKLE
T1 sequence (P62942 2-108 limits assumed, stated change not applied, other chains not shown): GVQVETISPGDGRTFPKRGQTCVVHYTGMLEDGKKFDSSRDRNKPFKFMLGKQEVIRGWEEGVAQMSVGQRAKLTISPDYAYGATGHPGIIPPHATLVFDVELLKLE

Compound	pIC50 (FKBP)	pEC50 [1, 2]	pIC50 (murine splenocyte; [3])	also measured
28-epi-7R-(3′-methyl)-but-4′-enyloxy	7.89	7.46	5.50	
28-epi-7S-(3′-methyl)-but-4′-enyloxy	7.57	7.80	6.14	
28-epi-7S-dimethylthiophene	7.11	7.52	5.81 to 5.91	
COc1ccccc1COC1CC2CCC(C)C(O)(O2)C(=O)C(=O)N2CCCCC2C(=O)OC(C(C)CC2CCC(O)C(OC)C2)CC(=O)C(C)C=C(C)C(O)C(OC)C(=O)C(C)CC(C)C=CC=CC=C1C (single isomer, unassigned) [28-epi-7R-2′-methoxybenzyloxy]	8.34	7.62	6.19	
COC1CC(CC(C)C2CC(=O)C(C)C=C(C)C(O)C(OC)C(=O)C(C)CC(C)C=CC=CC=C(C)C(N(C)C(=O)OCC(C)C)CC3CCC(C)C(O)(O3)C(=O)C(=O)N3CCCCC3C(=O)O2)CCC1O (single isomer, unassigned) [28-epi-7R-N-Me-isobutylcarbamate]	6.96	7.82	6.23	
CCCS(=O)(=O)N(C)C1CC2CCC(C)C(O)(O2)C(=O)C(=O)N2CCCCC2C(=O)OC(C(C)CC2CCC(O)C(OC)C2)CC(=O)C(C)C=C(C)C(O)C(OC)C(=O)C(C)CC(C)C=CC=CC=C1C (single isomer, unassigned) [28-epi-7R-N-Me-propanesulfonamide]	6.83	8.05	5.86	
CCOC(=O)N(C)C1CC2CCC(C)C(O)(O2)C(=O)C(=O)N2CCCCC2C(=O)OC(C(C)CC2CCC(O)C(OC)C2)CC(=O)C(C)C=C(C)C(O)C(OC)C(=O)C(C)CC(C)C=CC=CC=C1C (single isomer, unassigned) [28-epi-7R-N-methyl-ethylcarbamate]	6.92	8.05	6.59	
COC1CC(CC(C)C2CC(=O)C(C)C=C(C)C(O)C(OC)C(=O)C(C)CC(C)C=CC=CC=C(C)C(OCc3ccccc3)CC3CCC(C)C(O)(O3)C(=O)C(=O)N3CCCCC3C(=O)O2)CCC1O (single isomer, unassigned) [28-epi-7R-benzyloxy]	8.04	7.85	6.50	
COc1ccccc1COC1CC2CCC(C)C(O)(O2)C(=O)C(=O)N2CCCCC2C(=O)OC(C(C)CC2CCC(O)C(OC)C2)CC(=O)C(C)C=C(C)C(O)C(OC)C(=O)C(C)CC(C)C=CC=CC=C1C (single isomer, unassigned) [28-epi-7S-2′-methoxybenzyloxy]	7.48	7.82	7.60	
COC1CC(CC(C)C2CC(=O)C(C)C=C(C)C(O)C(OC)C(=O)C(C)CC(C)C=CC=CC=C(C)C(N(C)C(=O)OCC(C)C)CC3CCC(C)C(O)(O3)C(=O)C(=O)N3CCCCC3C(=O)O2)CCC1O (single isomer, unassigned) [28-epi-7S-N-Me-isobutylcarbamate]	7.72	7.40	5.86	
CO[C@@H]1C[C@H](C[C@@H](C)[C@@H]2CC(=O)[C@H](C)/C=C(\C)[C@H](O)[C@@H](OC)C(=O)[C@H](C)C[C@H](C)/C=C/C=C/C=C(\C)[C@H](Oc3ccccc3C)C[C@@H]3CC[C@@H](C)[C@@](O)(O3)C(=O)C(=O)N3CCCC[C@H]3C(=O)O2)CC[C@H]1O [28-epi-7R-2′-methylphenyloxy]				IC50 (FKBP): 8.1 nM; pEC50 [1, 4]: 8.10; TXN 2098L peak relative to rapamycin peak ([1]; superscript mark on EC50 cell): (+) (peak was >125% rapamycin peak)
CO[C@@H]1C[C@H](C[C@@H](C)[C@@H]2CC(=O)[C@H](C)/C=C(\C)[C@H](O)[C@@H](OC)C(=O)[C@H](C)C[C@H](C)/C=C/C=C/C=C(\C)[C@H](N(C)S(=O)(=O)N(C)C)C[C@@H]3CC[C@@H](C)[C@@](O)(O3)C(=O)C(=O)N3CCCC[C@H]3C(=O)O2)CC[C@H]1O [28-epi-7R-N-Me-dimethylsulfamide]		8.10	6.19	
CO[C@@H]1C[C@H](C[C@@H](C)[C@@H]2CC(=O)[C@H](C)/C=C(\C)[C@H](O)[C@@H](OC)C(=O)[C@H](C)C[C@H](C)/C=C/C=C/C=C(\C)[C@H](N(C)S(=O)(=O)N(C)c3ccccc3)C[C@@H]3CC[C@@H](C)[C@@](O)(O3)C(=O)C(=O)N3CCCC[C@H]3C(=O)O2)CC[C@H]1O [28-epi-7R-N-Me-methylphenylsulfamide]	7.13	8.10		
CCOC1CC2CCC(C)C(O)(O2)C(=O)C(=O)N2CCCCC2C(=O)OC(C(C)CC2CCC(O)C(OC)C2)CC(=O)C(C)C=C(C)C(O)C(OC)C(=O)C(C)CC(C)C=CC=CC=C1C (stereo not drawn) [28-epi-7R-ethoxy]		7.48		
CO[C@@H]1C[C@H](C[C@@H](C)[C@@H]2CC(=O)[C@H](C)/C=C(\C)[C@H](O)[C@@H](OC)C(=O)[C@H](C)C[C@H](C)/C=C/C=C/C=C(\C)[C@@H](Oc3ccccc3C)C[C@@H]3CC[C@@H](C)[C@@](O)(O3)C(=O)C(=O)N3CCCC[C@H]3C(=O)O2)CC[C@H]1O [28-epi-7S-2′-methylphenyloxy]				IC50 (FKBP): 17 nM; pEC50 [1, 4]: 7.85
CO[C@@H]1C[C@H](C[C@@H](C)[C@@H]2CC(=O)[C@H](C)/C=C(\C)[C@H](O)[C@@H](OC)C(=O)[C@H](C)C[C@H](C)/C=C/C=C/C=C(\C)[C@@H](N(C)S(=O)(=O)N(C)c3ccccc3)C[C@@H]3CC[C@@H](C)[C@@](O)(O3)C(=O)C(=O)N3CCCC[C@H]3C(=O)O2)CC[C@H]1O [28-epi-7S-N-Me-methylphenylsulfamide]		7.59		
COC1CC(CC(C)C2CC(=O)C(C)C=C(C)C(O)C(OC)C(=O)C(C)CC(C)C=CC=CC=C(C)C(OCCC3CCCCC3)CC3CCC(C)C(O)(O3)C(=O)C(=O)N3CCCCC3C(=O)O2)CCC1O (stereo not drawn) [28-epi-7S-cyclohexylethyloxy]		7.12		
CCOC1CC2CCC(C)C(O)(O2)C(=O)C(=O)N2CCCCC2C(=O)OC(C(C)CC2CCC(O)C(OC)C2)CC(=O)C(C)C=C(C)C(O)C(OC)C(=O)C(C)CC(C)C=CC=CC=C1C (stereo not drawn) [28-epi-7S-ethoxy]		7.82		IC50 (murine splenocyte; Mus musculus, Splenocyte, read-out: Splenocyte IC50 (nM)): 801 nM
CO[C@@H]1C[C@H](C[C@@H](C)[C@@H]2CC(=O)[C@H](C)/C=C(\C)[C@H](O)[C@@H](OC)C(=O)[C@H](C)C[C@H](C)/C=C/C=C/C=C(\C)[C@@H](OC(C)C)C[C@@H]3CC[C@@H](C)[C@@](O)(O3)C(=O)C(=O)N3CCCC[C@H]3C(=O)O2)CC[C@H]1O [28-epi-7S-isopropyloxy]	7.31	7.54		
COC1CC(CC(C)C2CC(=O)C(C)C=C(C)C(O)C(OC)C(=O)C(C)CC(C)C=CC=CC=C(C)C(SC(C)C)CC3CCC(C)C(O)(O3)C(=O)C(=O)N3CCCCC3C(=O)O2)CCC1O (stereo not drawn) [28-epi-7S-isopropylthioether]	7.82 and 7.68			TXN 2098L peak relative to rapamycin peak ([1]; superscript mark on EC50 cell): (+) (peak was >125% rapamycin peak)
CO[C@H]1C[C@@H]2CC[C@@H](C)[C@@](O)(O2)C(=O)C(=O)N2CCCCC2C(=O)O[C@H]([C@H](C)C[C@@H]2CC[C@@H](O)[C@H](OC)C2)CC(=O)[C@H](C)/C=C(\C)[C@H](O)[C@@H](OC)C(=O)[C@H](C)C[C@H](C)/C=C/C=C/C=C/1C (stereo partly shown) [28-epirapamycin]				affinity towards FKBP, times weaker than that of rapamycin (FKBP; fluorescence polarization competition assay, versus rapamycin): about 5 times; pIC50 (murine splenocyte; [5]): 8.46 to 9.05; pIC50 (murine splenocyte; [6]): 8.46 to 9.05; immunosuppressive activity compared with rapamycin (murine splenocyte): less potent immunosuppressive activity; immunosuppressive activity compared with rapamycin (murine splenocyte; listed as 2): more than an order of magnitude reduced
CO[C@H]1C[C@@H]2CC[C@@H](C)[C@@](O)(O2)C(=O)C(=O)N2CCCCC2C(=O)O[C@H]([C@H](C)C[C@@H]2CC[C@@H](O)[C@H](OC)C2)CC(=O)[C@H](C)/C=C(\C)[C@@H](O)[C@@H](OC)C(=O)[C@H](C)C[C@H](C)/C=C/C=C/C=C/1C (stereo partly shown) [rapamycin, reference compound]				pIC50 (murine splenocyte; [5]): 9.52 to 10.00; pIC50 (murine splenocyte; [6]): 9.52 to 10.00
